Data from ChEMBL document CHEMBL1128726, “N-substituted oxazolo[5,4-b]pyridin-2(1H)-ones: a new class of non-opiate antinociceptive agents” (J Med Chem, 1995).
Activity calls are given as the source filed them.

Experiments:
[1] = species on record: Rattus norvegicus; assay: Antinociceptive potency against acetic acid -induced writhing in rat (8 rats/dose); type: functional
[2] = species on record: Mus musculus; assay: Analgesic activity against phenylquinone induced writhing in mice compared to that of aspirin.; type: functional
[3] = species on record: Rattus norvegicus; assay: Analgesic activity against acetic acid-induced writhing in the rat compared to that of aspirin.; type: functional
[4] = species on record: Mus musculus; assay: Antinociceptive potency against phenylquinone (PBQ)-induced writhing in mice (8 mice/dose); type: functional
[5] = tested on: Mus musculus; assay: Inhibition of phenylquinone induced writhing in mice following 50 mg/kg p.o.; type: functional; conditions: route oral
[6] = tested on: Rattus norvegicus; assay: Inhibition of acetic acid induced writhing in rat following 50 mg/kg p.o.; type: functional; conditions: route oral
[7] = tested on: Rattus norvegicus; assay: Antiinflammatory activity was evaluated by carrageenan induced rat paw edema (6 rats/ dose) at peroral dose of 50 mg/kg by inhibition of leukotriene B4 (LTB4) synthesis.; type: functional; conditions: route oral
[8] = tested on: Mus musculus; assay: Mortality threshold doses was determined from orientative acute toxicity Irwin test (3 mice/dose) by peroral administration. Value in parentheses represent the percent mortality.; type: organism-based; conditions: in vivo, po
[9] = tested on: Rattus norvegicus; assay: Antiinflammatory activity was evaluated by carrageenan induced rat paw edema (6 rats/ dose) at peroral dose of 50 mg/kg and percent of variation of edema volume was determined.; type: functional; conditions: route oral
[10] = tested on: Rattus norvegicus; assay: % inhibition of acetic acid-induced writhing in rat at 1.5 mg/kg peroral dose, 360 min postdose(5 rats per compound at each time); type: functional; conditions: 6 h, route oral
[11] = tested on: Rattus norvegicus; assay: % inhibition of acetic acid-induced writhing in rat at 1.5 mg/kg peroral dose, 180 min postdose(5 rats per compound at each time).p<0.05; type: functional; conditions: 3 h, route oral
[12] = tested on: Rattus norvegicus; assay: Antiinflammatory activity was evaluated by carrageenan induced rat paw edema (6 rats/ dose) at peroral dose of 50 mg/kg by inhibition of Prostaglandin E2 (PGE2).; type: functional; conditions: route oral
[13] = tested on: Rattus norvegicus; assay: % inhibition of acetic acid-induced writhing in rat at 1.5 mg/kg peroral dose, 30 min postdose(5 rats per compound at each time).p<0.001; type: functional; conditions: 0.5 h, route oral
[14] = tested on: Rattus norvegicus; assay: % inhibition of acetic acid-induced writhing in rat at 1.5 mg/kg peroral dose, 60 min postdose(5 rats per compound at each time).p<0.01; type: functional; conditions: 1 h, route oral
[15] = tested on: Rattus norvegicus; assay: % inhibition of acetic acid-induced writhing in rat at 1.5 mg/kg peroral dose, 120 min postdose(5 rats per compound at each time).p<0.05; type: functional; conditions: 2 h, route oral
[16] = tested on: Mus musculus; assay: Analgesic activity was evaluated in mice by hot plate assay and percent change in foot licking latency was determined at 32 mg/kg i.p. dose. p<0.05; type: functional; conditions: route intraperitoneal
[17] = tested on: Rattus norvegicus; assay: % inhibition of acetic acid-induced writhing in rat at 1.5 mg/kg peroral dose, 15 min postdose(5 rats per compound at each time). p<0.05; type: functional; conditions: 0.25 h, route oral
[18] = tested on: Mus musculus; assay: Mortality threshold doses was determined from orientative acute toxicity Irwin test (3 mice/dose) by peroral administration; type: organism-based; conditions: in vivo, po
[19] = tested on: Rattus norvegicus; assay: Antiinflammatory activity was evaluated by carrageenan induced rat paw edema volume was determined.; type: functional
[20] = tested on: Rattus norvegicus; assay: Antiinflammatory activity was evaluated by carrageenan induced rat paw edema (6 rats/ dose) at peroral dose of 100 mg/kg by inhibition of leukotriene B4 (LTB4) synthesis.; type: functional; conditions: route oral
[21] = tested on: Rattus norvegicus; assay: Antiinflammatory activity was evaluated by carrageenan induced rat paw edema (6 rats/ dose) at peroral dose of 100 mg/kg by inhibition of Prostaglandin E2 (PGE2).; type: functional; conditions: route oral
[22] = tested on: Rattus norvegicus; assay: % inhibition of acetic acid-induced writhing in rat at 30 mg/kg peroral dose, 180 min postdose(5 rats per compound at each time); type: functional; conditions: 3 h, route oral
[23] = tested on: Rattus norvegicus; assay: % inhibition of acetic acid-induced writhing in rat at 30 mg/kg peroral dose, 60 min postdose(5 rats per compound at each time); type: functional; conditions: 1 h, route oral
[24] = tested on: Rattus norvegicus; assay: % inhibition of acetic acid-induced writhing in rat at 30 mg/kg peroral dose, 15 min postdose(5 rats per compound at each time); type: functional; conditions: 0.25 h, route oral
[25] = tested on: Rattus norvegicus; assay: % inhibition of acetic acid-induced writhing in rat at 30 mg/kg peroral dose, 120 min postdose(5 rats per compound at each time); type: functional; conditions: 2 h, route oral
[26] = tested on: Rattus norvegicus; assay: % inhibition of acetic acid-induced writhing in rat at 30 mg/kg peroral dose, 360 min postdose(5 rats per compound at each time); type: functional; conditions: 6 h, route oral
[27] = tested on: Rattus norvegicus; assay: % inhibition of acetic acid-induced writhing in rat at 30 mg/kg peroral dose, 30 min postdose(5 rats per compound at each time); type: functional; conditions: 0.5 h, route oral
[28] = tested on: Rattus norvegicus; assay: Antiinflammatory activity was evaluated by carrageenan induced rat paw edema (6 rats/ dose) at peroral dose of 200 mg/kg by inhibition of Prostaglandin E2 (PGE2).; type: functional; conditions: route oral
[29] = tested on: Rattus norvegicus; assay: Antiinflammatory activity was evaluated by carrageenan induced rat paw edema (6 rats/ dose) at peroral dose of 200 mg/kg and percent of variation of edema volume was determined.; type: functional; conditions: route oral
[30] = tested on: Rattus norvegicus; assay: Antiinflammatory activity was evaluated by carrageenan induced rat paw edema (6 rats/ dose) at peroral dose of 200 mg/kg by inhibition of leukotriene B4 (LTB4) synthesis.; type: functional; conditions: route oral
[31] = tested on: Mus musculus; assay: Analgesic activity was evaluated in mice by hot plate assay and percent change in foot licking latency was determined at 8 mg/kg i.p. dose; type: functional; conditions: route intraperitoneal
[32] = tested on: Rattus norvegicus; assay: Antiinflammatory activity was evaluated by carrageenan induced rat paw edema (6 rats/ dose) at peroral dose of 10 mg/kg by inhibition of leukotriene B4 (LTB4) synthesis.; type: functional; conditions: route oral
[33] = species on record: Rattus norvegicus; assay: animal or person; conditions: po, read-out: Inhibition
Description: Antiinflammatory activity was evaluated by carrageenan induced rat paw edema (6 rats/ dose) at peroral dose of 10 mg/kg by inhibition of Prostaglandin E2 (PGE2).

[34] = tested on: Mus musculus; assay: Analgesic activity was evaluated in mice by hot plate assay and percent change in foot licking latency was determined at 16 mg/kg i.p. dose; type: functional; conditions: route intraperitoneal
[35] = tested on: Mus musculus; assay: Analgesic activity was evaluated in mice (10 mice/dose)by tail clip assay and expressed as number of protected animals upon total. Total tested was determined at 5 mg/kg p.o. dose; 5/10; type: functional, organism-based; parameters: dose 5 mg/kg

Structure (SMILES)	ED50 [1]	Activity ratio [2]	Activity ratio [3]	ED50 [4]	inhibition in vivo at 50 mg/kg [5]	inhibition in vivo at 50 mg/kg [6]	also measured
O=c1oc2ncccc2n1CCCCCCN1CCN(c2ccc(F)cc2)CC1	14.2 mg/kg	1.4	1.6	7.7 mg/kg	100%	100%	–
O=c1oc2ncccc2n1CCCN1CCN(c2ccc(F)cc2)CC1	0.5 mg/kg	1.6	2	5.6 mg/kg	85%	79%	inhibition in vivo at 50 mg/kg [7]: 16%; Mortality threshold [8]: 1024 mg/kg; Change in volume [9]: -11%; inhibition in vivo at 1.5 mg/kg [10]: 4%; inhibition in vivo at 1.5 mg/kg [11]: 44%; inhibition in vivo at 50 mg/kg [12]: -5%; inhibition in vivo at 1.5 mg/kg [13]: 65%; inhibition in vivo at 1.5 mg/kg [14]: 50%; inhibition in vivo at 1.5 mg/kg [15]: 63%; Change in foot-licking latency [16]: 87%; inhibition in vivo at 1.5 mg/kg [17]: 47%
O=c1oc2ncccc2n1CCCCN1CCC(c2ccccc2)CC1	–	0	1.5	–	0%	59%	–
CC(CN1CCN(c2ccc(F)cc2)CC1)Cn1c(=O)oc2ncccc21 (stereo not given)	20.5 mg/kg	1.4	1.6	24.6 mg/kg	99%	100%	–
O=c1oc2ncccc2n1CCN1CCN(Cc2ccccc2)CC1	–	0.9	0.7	–	43%	48%	–
O=c1oc2ncccc2n1CCCN1CCN(c2ccccc2)CC1	3.3 mg/kg	1.4	1.3	12.7 mg/kg	98%	92%	Mortality threshold [18]: > 1024 mg/kg; Change in volume [19]: -20%; inhibition in vivo at 100 mg/kg [20]: 35%; Change in foot-licking latency [16]: 30%; inhibition in vivo at 100 mg/kg [21]: 5%
O=c1oc2ncccc2n1CCN1CCN(c2cccc3ccccc23)CC1	–	0.7	0.1	–	33%	6%	–
O=c1oc2ncccc2n1CCCN1CCOCC1	–	0.9	0	–	48%	0%	–
O=c1oc2ncccc2n1CCN1CCCC1	–	0.8	0.8	–	55%	55%	–
O=c1oc2ncccc2n1CCCN1CCN(Cc2ccccc2)CC1	–	0.3	0.2	–	14%	12%	–
O=c1oc2ncccc2n1CCN1CCN(c2ccccc2)CC1	13.6 mg/kg	–	–	25 mg/kg	–	74%	–
O=c1oc2ncccc2n1CCCCN1CCN(c2ccccc2)CC1	13.6 mg/kg	1.3	1.4	27 mg/kg	91%	96%	–
O=c1oc2ncccc2n1CCCN1CCN(c2cccc3ccccc23)CC1	–	0.9	0	–	44%	0%	–
O=c1oc2ncccc2n1CCN1CCN(c2ccc(F)cc2)CC1	3.6 mg/kg	1.2	1.2	6.7 mg/kg	83%	85%	–
O=c1oc2ncccc2n1CCN1CCN(c2cccc(C(F)(F)F)c2)CC1	–	0.1	0.2	–	10%	11%	–
O=C(CCn1c(=O)oc2ncccc21)N1CCN(c2ccc(F)cc2)CC1	–	0.4	0.5	–	25%	43%	–
CC(=O)Oc1ccccc1C(=O)O [ASPIRIN]	32 mg/kg	–	–	63 mg/kg	–	–	inhibition in vivo at 30 mg/kg [22]: 18%; inhibition in vivo at 30 mg/kg [23]: 60%; inhibition in vivo at 30 mg/kg [24]: 53%; inhibition in vivo at 30 mg/kg [25]: 26%; inhibition in vivo at 30 mg/kg [26]: 0%; inhibition in vivo at 30 mg/kg [27]: 37%
O=C1CCN(c2ccccc2)N1 [PHENIDONE]	–	–	–	–	–	–	inhibition in vivo at 200 mg/kg [28]: 100%; Change in volume [29]: -68%; inhibition in vivo at 200 mg/kg [30]: 100%
O=c1oc2ncccc2n1CCCCN1CCN(c2ccc(F)cc2)CC1	0.5 mg/kg	1.9	2.2	2.9 mg/kg	100%	87%	Mortality threshold [18]: 512 mg/kg; inhibition in vivo at 50 mg/kg [7]: 0%; Variation of edema volume [19]: -25%; inhibition in vivo at 50 mg/kg [12]: 2%; Change in foot-licking latency [31]: 113%
O=c1oc2ncccc2n1CCCCCN1CCN(c2ccc(F)cc2)CC1	30.4 mg/kg	1.4	1.6	11.4 mg/kg	100%	100%	–
COc1ccc2c(c1)c(CC(=O)O)c(C)n2C(=O)c1ccc(Cl)cc1 [INDOMETHACIN]	–	–	–	–	–	–	Change in volume [19]: -57%; inhibition in vivo at 10 mg/kg [32]: 18%; inhibition in vivo at 10 mg/kg [33]: 100%
COc1ccccc1N1CCN(CCn2c(=O)oc3ncccc32)CC1	–	0.8	0.8	–	52%	53%	–
O=c1oc2ncccc2n1CCN1CCC(c2ccccc2)CC1	–	0.1	0.7	–	9%	50%	–
CC(CCn1c(=O)oc2ncccc21)N1CCN(c2ccc(F)cc2)CC1 (stereo not given)	–	1.3	0.7	–	63%	51%	–
COc1ccc(N2CCN(CCCn3c(=O)oc4ncccc43)CC2)cc1	–	0.7	0.2	–	35%	14%	–
CN1CC[C@]23c4c5ccc(O)c4O[C@H]2[C@@H](O)C=C[C@H]3[C@H]1C5.CN1CC[C@]23c4c5ccc(O)c4O[C@H]2[C@@H](O)C=C[C@H]3[C@H]1C5.O=S(=O)(O)O	–	–	–	–	–	–	Change in foot-licking latency [34]: 283%; No. of protected animals/total [35]: Partially active
